We go through one compound from article PMC10865806, “Structural insights into the molecular mechanism of high-level ceftazidime–avibactam resistance conferred by CMY-185” (mBio, 2024).

The target in one assay is T1, CMY-2 (Klebsiella pneumoniae, UniProt Q48434).
T1 construct: all CMY-2 variant genes encoding the mature enzyme without a signal peptide were cloned into the protein expression plasmid vector pET-30b; made in house; host or cells: E. coli BL21 (DE3), pET-30b
The assay can be described thus: Steady-state hydrolysis kinetics. The format is biochemical, Escherichia coli. To be noted: substrate 100 µM, 100–200 nM enzyme. The text has this: (§1) We tested the enzymes, CMY-2, two single mutants V211S (CMY-42) and N346Y, three double mutants A114E_N346Y, Q120K_N346Y, and V211S_N346Y, and the quadruplet mutant CMY-185 to elucidate the impact on the kinetic properties resulting from the four amino acid substitutions present in CMY-185 compared with CMY-2 ([8]). The steady-state kinetic parameters kcat and Km (or Ki app) for nitrocefin, cephalothin, ceftazidime, and cefiderocol and the inhibition parameters Ki app, k2/K, k−2, and koff for avibactam are summarized in Table 1. During the hydrolysis of nitrocefin, we observed the reduction of the initial velocity at concentrations above 50 µM particularly for the CMY-2 variants harboring the N346Y substitution. As this could have represented substrate inhibition, we then determined the kinetics parameters for nitrocefin using the Haldane equation ([16]). […] In addition, during the hydrolysis of cefiderocol by CMY-185, the initial velocities at a concentration range of 3.7–59.4 µM were similar.
(§2) The steady-state kinetics were carried out on a UV-Visible spectrometer (UV-1280, Shimadzu, Japan) in PBS pH 7.2 at 25°C with a constant amount of enzyme and varying concentrations of the substrates. We tested nitrocefin, cephalothin, ceftazidime, and cefiderocol as the substrates and avibactam as the inhibitor. The steady-state kinetics parameters Km and kcat were determined with the Michaelis-Menten equation. For poorly hydrolyzed substrates, the Km value was assumed to be the competitive inhibition constant (Ki app) value according to previous studies ([17], [19]). Inhibition parameter values of Ki app, k2/K, k−2, and koff for avibactam were determined using a method as described previously ([33]). Cephalothin was used as the reporter substrate for competitive inhibition experiments, and its concentration was fixed at 100 µM. […] Inverse steady-state initial velocities were plotted against the concentration of the competitive inhibitor agents, such as ceftazidime, cefiderocol, and avibactam. The data were analyzed by linear regression analysis of the Dixon plot, and Ki app (observed) was determined by dividing the y-intercept value by the slope of the line. It was then corrected to account for the affinity of cephalothin for each enzyme using the Equation (1): […]

For assay [1], the target named is T2, CMY-2 variant A114E_N346Y (Klebsiella pneumoniae, UniProt Q48434, A134E/N366Y).
T2 construct: all CMY-2 variant genes encoding the mature enzyme without a signal peptide were cloned into the protein expression plasmid vector pET-30b; made in house; host or cells: E. coli BL21 (DE3), pET-30b
The assay can be described thus: Steady-state hydrolysis kinetics. The format is biochemical, Escherichia coli. Conditions: substrate 100 µM, 100–200 nM enzyme.
Description: as §1, §2

For a further assay, the target named is T3, CMY-2 variant N346Y (Klebsiella pneumoniae, UniProt Q48434, N366Y).
T3 construct: all CMY-2 variant genes encoding the mature enzyme without a signal peptide were cloned into the protein expression plasmid vector pET-30b; made in house; host or cells: E. coli BL21 (DE3), pET-30b
The assay can be described thus: Steady-state hydrolysis kinetics. The format is biochemical, Escherichia coli. Conditions: substrate 100 µM, 100–200 nM enzyme.
Description: as §1, §2

Another assay addresses T4, CMY-185 (Klebsiella pneumoniae, UniProt Q48434, A134E/N366Y/Q140K/V231S).
T4 construct: all CMY-2 variant genes encoding the mature enzyme without a signal peptide were cloned into the protein expression plasmid vector pET-30b; made in house; host or cells: E. coli BL21 (DE3), pET-30b
The assay can be described thus: Steady-state hydrolysis kinetics. In kind it is biochemical, Escherichia coli.
Description: as §1
(§3) The steady-state kinetics were carried out on a UV-Visible spectrometer (UV-1280, Shimadzu, Japan) in PBS pH 7.2 at 25°C with a constant amount of enzyme and varying concentrations of the substrates. We tested nitrocefin, cephalothin, ceftazidime, and cefiderocol as the substrates and avibactam as the inhibitor. The steady-state kinetics parameters Km and kcat were determined with the Michaelis-Menten equation. For poorly hydrolyzed substrates, the Km value was assumed to be the competitive inhibition constant (Ki app) value according to previous studies ([17], [19]). Inhibition parameter values of Ki app, k2/K, k−2, and koff for avibactam were determined using a method as described previously ([33]). Cephalothin was used as the reporter substrate for competitive inhibition experiments, and its concentration was fixed at 100 µM. The enzyme concentration was 1–10 nM. Inverse steady-state initial velocities were plotted against the concentration of the competitive inhibitor agents, such as ceftazidime, cefiderocol, and avibactam. The data were analyzed by linear regression analysis of the Dixon plot, and Ki app (observed) was determined by dividing the y-intercept value by the slope of the line. It was then corrected to account for the affinity of cephalothin for each enzyme using the Equation (1): […]

In assay [2] the target is T5, CMY-2 variant Q120K_N346Y (Klebsiella pneumoniae, UniProt Q48434, N366Y/Q140K).
T5 construct: all CMY-2 variant genes encoding the mature enzyme without a signal peptide were cloned into the protein expression plasmid vector pET-30b; made in house; host or cells: E. coli BL21 (DE3), pET-30b
The assay can be described thus: Steady-state hydrolysis kinetics. In kind it is biochemical, Escherichia coli. Conditions: substrate 100 µM, 100–200 nM enzyme.
Description: as §1, §3

Assay [3] addresses T6, CMY-2 variant V211S_N346Y (Klebsiella pneumoniae, UniProt Q48434, N366Y/V231S).
T6 construct: all CMY-2 variant genes encoding the mature enzyme without a signal peptide were cloned into the protein expression plasmid vector pET-30b; made in house; host or cells: E. coli BL21 (DE3), pET-30b
The assay can be described thus: Steady-state hydrolysis kinetics. In kind it is biochemical, Escherichia coli.
Description: as §1, §3

A further assay addresses T7, V211S (CMY-42) (Klebsiella pneumoniae, UniProt Q48434, V231S).
T7 construct: all CMY-2 variant genes encoding the mature enzyme without a signal peptide were cloned into the protein expression plasmid vector pET-30b; made in house; host or cells: E. coli BL21 (DE3), pET-30b
The assay can be described thus: Steady-state hydrolysis kinetics. The format is biochemical, Escherichia coli. Conditions: PBS pH 7.2, 25°C.
Description: as §1, §3

The subject of another assay is CMY-172. Conditions: cited from earlier work.
For a further assay, the system named is AmpC^Ent385. Also on record: method as in PMID 32284381. Conditions: lowest Km reported to date; cited from earlier work.

The structures appear in SMILES notation. ≈ marks a conversion by molar mass, not a printed value.

On to `CC(C)(O/N=C(\C(=O)N[C@@H]1C(=O)N2C(C(=O)[O-])=C(C[N+]3(CCNC(=O)c4ccc(O)c(O)c4Cl)CCCC3)CS[C@H]12)c1csc(N)n1)C(=O)O` [Cefiderocol, cefiderocol], for which the hydrolysis entry (at CMY-2; in assay [1]; at CMY-2 variant N346Y; in [2]) was “no apparent hydrolysis” in each case. Also, the kcat at CMY-185 (determined with steady-state velocities (cefiderocol 3.7–59.4 µM) and Ki app assumed to Km) is 6.9 × 10^−3 ± 0.4 ×10^−3 a s^−1; in assay [3] (V211S_N346Y, PBS pH 7.2, 25°C), 0.049 ± 0.003 s⁻¹; on V211S (CMY-42), 0.034 ± 0.002 s⁻¹; at V211S (CMY-42) (listed as cefiderocol), “(3.4 ± 0.2) × 10^−2 s^−1”. In addition, the kcat/Ki app at CMY-185 (kcat/Ki app shown in the kcat/Km line) is listed as 3.0 × 10^−2 ± 0.2 × 10^−2 b µM^−1 s^−1. Further, in [3] (V211S_N346Y compared to V211S), the “fold lower Km” value is on record as 10 fold. In addition, the Km in assay [3] (V211S_N346Y, PBS pH 7.2, 25°C) was 6.9 ± 1.5 µM; at V211S (CMY-42), 68 ± 11 µM; in the assay with AmpC^Ent385, 49.8 µM. The MIC with CMY-172 was 1 µg/mL (≈ 1.33 µM).
